# From patent publication US10669269B2, “Substituted N-(1H-indazol-4-yl)imidazo[1,2-a]pyridine-3-carboxamide compounds as type III receptor tyrosine kinase inhibitors” (ARRAY BIOPHARMA INC., priority 2010, dated 2020)
# Where a name gives a salt, the structure may show the parent alone.
# What was measured:
# [1] = target: T1, PDGFR beta (Homo sapiens, UniProt P09619); experiment: Phospho PDGFR Cell Assay, sandwich ELISA (Example A); type: cell-based; settings: averaged IC50, PDGFR beta phosphorylation in HS27 human fibroblast cell line, PDGF-BB stimulation 5 minutes
# T1 construct: endogenous in cells; host or cells: HS27 human fibroblast cell line
# Procedure: Compounds were screened for inhibition of PDGFR beta phosphorylation in the HS27 human fibroblast cell line. Cells were seeded into a 96 well tissue culture plate, then incubated overnight in a 37° C., 5% CO2 incubator. The following day, cells were treated for one hour with test compound dilutions. After stimulation with PDGF-BB ligand for 5 minutes, cells were lysed and added to a sandwich ELISA plate from R&D Systems to detect levels of phospho PDGFR beta. A standard 4-parameter logistic model was fit to the inhibitor dose response curves, with the IC50 being defined as the concentration of inhibitor giving 50 percent of control (POC).
# [2] = target: T2, cFMS (Homo sapiens, UniProt P07333); experiment: cFMS Cell-Based Assay (Example C); settings: averaged IC50; phospho-cFMS in THP-1 cells stimulated with 250 ng/mL recombinant human MCSF; read-out: cFMS Cell ELISA IC50
# T2 construct: THP-1 cells (human acute monocytic leukemia cell line) were serum-starved for 4 hours; endogenous in cells; host or cells: THP-1 cells (human acute monocytic leukemia cell line)
# How it was run: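 Phosphotyrosine on cFMS, captured from lysates and quantified by ELISA, reads receptor activation after 1 min of 250 ng/mL human MCSF. Beforehand, THP-1 cells were serum-starved for 4 h and exposed to compound for 1 h (9 points, 3-fold, typically up to 5,000 nM). IC50 from a 4-parameter logistic fit as 50 percent of control.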
# [3] = target: T3, c-KIT (Homo sapiens, UniProt P10721); experiment: c-KIT Cell-Based Assay (Example D); settings: averaged IC50; phospho-c-KIT in M-07e cells stimulated with 150 ng/ml recombinant human SCF; read-out: cKIT Cell ELISA IC50
# T3 construct: M-07e cells (human acute megakaryoblastic leukemia cell line) were serum-starved for 4 hours; endogenous in cells; host or cells: M-07e cells (human acute megakaryoblastic leukemia cell line)
# How it was run: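 Phospho-c-KIT ELISA readout, calibrated with purified phospho-SCF R, gave IC50 (4-parameter fit, 50% of control). Before lysis, M-07e cells were starved 4 h, exposed 1 h to a 9-point 3-fold series (highest usually 5,000 nM), and stimulated with 150 ng/ml SCF for 4 min.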
# T2 sequence (P07333 20-972): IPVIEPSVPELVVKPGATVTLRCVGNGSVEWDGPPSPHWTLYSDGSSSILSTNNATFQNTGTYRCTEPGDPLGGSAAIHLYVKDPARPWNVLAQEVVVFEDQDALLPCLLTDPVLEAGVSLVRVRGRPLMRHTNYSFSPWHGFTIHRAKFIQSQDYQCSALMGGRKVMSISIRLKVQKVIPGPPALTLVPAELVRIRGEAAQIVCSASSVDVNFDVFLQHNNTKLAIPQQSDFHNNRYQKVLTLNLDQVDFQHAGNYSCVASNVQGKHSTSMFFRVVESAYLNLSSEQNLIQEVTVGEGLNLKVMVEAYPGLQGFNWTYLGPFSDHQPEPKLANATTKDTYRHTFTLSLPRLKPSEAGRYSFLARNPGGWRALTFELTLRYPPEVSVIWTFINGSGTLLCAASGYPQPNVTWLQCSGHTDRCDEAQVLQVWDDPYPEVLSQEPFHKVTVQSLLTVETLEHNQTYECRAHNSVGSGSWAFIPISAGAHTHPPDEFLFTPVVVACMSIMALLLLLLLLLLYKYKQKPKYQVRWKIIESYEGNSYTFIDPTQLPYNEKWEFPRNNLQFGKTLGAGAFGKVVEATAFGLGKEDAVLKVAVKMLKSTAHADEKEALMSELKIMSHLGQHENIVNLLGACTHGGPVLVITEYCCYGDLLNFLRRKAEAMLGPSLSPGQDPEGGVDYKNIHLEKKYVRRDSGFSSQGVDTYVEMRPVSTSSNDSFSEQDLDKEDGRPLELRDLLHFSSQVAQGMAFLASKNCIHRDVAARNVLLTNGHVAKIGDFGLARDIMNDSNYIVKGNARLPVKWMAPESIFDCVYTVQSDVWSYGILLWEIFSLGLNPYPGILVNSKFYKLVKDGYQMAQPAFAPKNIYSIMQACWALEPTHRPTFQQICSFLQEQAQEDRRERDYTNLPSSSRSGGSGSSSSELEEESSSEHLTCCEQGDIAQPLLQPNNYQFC
# T1 sequence (P09619 33-1106): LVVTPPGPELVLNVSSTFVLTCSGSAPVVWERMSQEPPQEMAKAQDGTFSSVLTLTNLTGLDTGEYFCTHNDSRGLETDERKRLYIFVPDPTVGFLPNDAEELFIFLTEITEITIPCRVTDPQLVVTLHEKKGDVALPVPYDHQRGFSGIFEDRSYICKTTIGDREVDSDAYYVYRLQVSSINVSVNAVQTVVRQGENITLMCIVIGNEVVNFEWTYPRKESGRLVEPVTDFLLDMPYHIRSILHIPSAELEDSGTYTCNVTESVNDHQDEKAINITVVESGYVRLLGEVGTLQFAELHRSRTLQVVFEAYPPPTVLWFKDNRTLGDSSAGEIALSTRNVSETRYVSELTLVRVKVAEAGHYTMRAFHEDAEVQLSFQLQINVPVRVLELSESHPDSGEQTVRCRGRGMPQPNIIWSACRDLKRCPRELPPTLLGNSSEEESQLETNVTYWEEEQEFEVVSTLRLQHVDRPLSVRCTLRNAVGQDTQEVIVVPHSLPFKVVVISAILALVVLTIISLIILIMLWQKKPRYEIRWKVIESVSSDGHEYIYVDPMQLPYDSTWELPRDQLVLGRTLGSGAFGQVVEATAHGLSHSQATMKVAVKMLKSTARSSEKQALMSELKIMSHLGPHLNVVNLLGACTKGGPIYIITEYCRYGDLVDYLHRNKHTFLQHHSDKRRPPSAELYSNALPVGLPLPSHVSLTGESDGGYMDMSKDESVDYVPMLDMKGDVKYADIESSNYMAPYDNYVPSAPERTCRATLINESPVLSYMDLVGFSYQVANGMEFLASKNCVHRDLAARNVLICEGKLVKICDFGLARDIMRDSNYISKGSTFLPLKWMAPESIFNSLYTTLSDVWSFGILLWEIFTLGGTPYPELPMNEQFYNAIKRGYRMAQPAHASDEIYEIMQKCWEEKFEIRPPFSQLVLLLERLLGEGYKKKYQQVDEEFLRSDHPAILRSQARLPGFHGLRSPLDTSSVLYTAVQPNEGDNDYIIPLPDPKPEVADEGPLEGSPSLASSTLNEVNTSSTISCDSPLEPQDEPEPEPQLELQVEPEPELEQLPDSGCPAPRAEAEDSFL
# T3 sequence (P10721 26-976): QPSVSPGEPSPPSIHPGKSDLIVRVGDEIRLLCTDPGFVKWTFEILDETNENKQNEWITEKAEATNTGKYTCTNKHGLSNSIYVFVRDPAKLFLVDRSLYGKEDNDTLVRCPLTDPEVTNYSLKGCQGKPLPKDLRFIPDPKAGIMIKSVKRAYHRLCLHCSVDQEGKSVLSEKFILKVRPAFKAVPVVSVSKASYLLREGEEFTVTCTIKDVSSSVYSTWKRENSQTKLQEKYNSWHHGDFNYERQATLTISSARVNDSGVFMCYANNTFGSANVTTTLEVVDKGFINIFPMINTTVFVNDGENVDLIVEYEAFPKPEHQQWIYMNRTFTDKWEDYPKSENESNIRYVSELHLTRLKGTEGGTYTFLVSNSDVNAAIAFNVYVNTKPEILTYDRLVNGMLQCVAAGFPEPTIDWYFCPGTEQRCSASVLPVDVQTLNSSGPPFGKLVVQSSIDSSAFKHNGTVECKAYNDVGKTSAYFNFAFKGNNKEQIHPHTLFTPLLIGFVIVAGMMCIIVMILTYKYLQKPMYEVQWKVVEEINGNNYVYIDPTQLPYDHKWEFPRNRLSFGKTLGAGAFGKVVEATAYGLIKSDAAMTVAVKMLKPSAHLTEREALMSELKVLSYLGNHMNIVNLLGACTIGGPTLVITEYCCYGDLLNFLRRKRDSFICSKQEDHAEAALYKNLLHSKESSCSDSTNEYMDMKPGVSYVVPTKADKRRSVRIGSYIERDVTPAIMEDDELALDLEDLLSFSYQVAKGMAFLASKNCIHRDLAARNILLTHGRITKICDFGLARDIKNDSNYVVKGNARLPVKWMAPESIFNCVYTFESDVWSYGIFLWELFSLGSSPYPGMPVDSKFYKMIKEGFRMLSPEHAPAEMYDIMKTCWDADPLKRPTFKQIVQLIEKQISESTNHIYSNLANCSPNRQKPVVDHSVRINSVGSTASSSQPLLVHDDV
Structure (SMILES),IC50 [1] [nM],IC50 [2] [nM],IC50 [3] [nM]
"CCc1cccc(Cn2nc(C)c3c(NC(=O)c4cnc5cc(OCCN6CCN(C)[C@@H](C)C6)ccn45)cccc32)n1 [Example 36, (S)-7-(2-(3,4-dimethylpiperazin-1-yl)ethoxy)-N-(1-((6-ethylpyridin-2-yl)methyl)-3-methyl-1H-indazol-4-yl)imidazo[1,2-a]pyridine-3-carboxamide]",65.6,12,119
"CCC(C)c1cccc(Cn2nc(C)c3c(NC(=O)c4cnc5cc(OCCN6CCN(C)[C@@H](C)C6)ccn45)cccc32)n1 (stereo partly drawn) [Example 37, N-(1-((6-sec-butylpyridin-2-yl)methyl)-3-methyl-1H-indazol-4-yl)-7-(2-((S)-3,4-dimethylpiperazin-1-yl)ethoxy)imidazo[1,2-a]pyridine-3-carboxamide]",102,52.4,62
"CCCc1ccc(Cn2nc(C)c3c(NC(=O)c4cnc5cc(OCCN6CCN(C)[C@@H](C)C6)ccn45)cccc32)nc1 [Example 38, (S)-7-(2-(3,4-dimethylpiperazin-1-yl)ethoxy)-N-(3-methyl-1-((5-propylpyridin-2-yl)methyl)-1H-indazol-4-yl)imidazo[1,2-a]pyridine-3-carboxamide]",253,15.4,337
"Cc1nn(Cc2ccc(C(C)C)cn2)c2cccc(NC(=O)c3cnc4cc(OCCN5CCN(C)[C@@H](C)C5)ccn34)c12 [Example 39, (S)-7-(2-(3,4-dimethylpiperazin-1-yl)ethoxy)-N-(1-((5-isopropylpyridin-2-yl)methyl)-3-methyl-1H-indazol-4-yl)imidazo[1,2-a]pyridine-3-carboxamide]",68,35.7,188
"Cc1nn(Cc2cccc(CC(C)C)n2)c2cccc(NC(=O)c3cnc4cc(OCCN5CCN(C)[C@@H](C)C5)ccn34)c12 [Example 40, (S)-7-(2-(3,4-dimethylpiperazin-1-yl)ethoxy)-N-(1-((6-isobutylpyridin-2-yl)methyl)-3-methyl-1H-indazol-4-yl)imidazo[1,2-a]pyridine-3-carboxamide]",37.2,55.8,95
"Cc1nn(Cc2ccc(F)c(C(C)C)n2)c2cccc(NC(=O)c3cnc4cc(OCCN5CCN(C)[C@@H](C)C5)ccn34)c12 [Example 41, (S)-7-(2-(3,4-dimethylpiperazin-1-yl)ethoxy)-N-(1-((5-fluoro-6-isopropylpyridin-2-yl)methyl)-3-methyl-1H-indazol-4-yl)imidazo[1,2-a]pyridine-3-carboxamide]",19.6,97.1,87.2
"Cc1nn(Cc2cccc(C3CC3)n2)c2ccc(F)c(NC(=O)c3cnc4cc(OCCN5CCN(C)[C@@H](C)C5)ccn34)c12 [Example 43, (S)—N-(1-((6-cyclopropylpyridin-2-yl)methyl)-5-fluoro-3-methyl-1H-indazol-4-yl)-7-(2-(3,4-dimethylpiperazin-1-yl)ethoxy)imidazo[1,2-a]pyridine-3-carboxamide]",84.5,23.4,58.9
"Cc1nn(Cc2cccc(C(C)C)n2)c2cccc(NC(=O)c3cnc4cc(OCCN5CCN[C@@H](C)C5)ccn34)c12 [Example 46, (S)—N-(1-((6-isopropylpyridin-2-yl)methyl)-3-methyl-1H-indazol-4-yl)-7-(2-(3-methylpiperazin-1-yl)ethoxy)imidazo[1,2-a]pyridine-3-carboxamide]",21.4,22.4,42.5
"Cc1cccc(Cn2nc(C)c3c(NC(=O)c4cnc5cc(OCCN6CCN(C(=O)OC(C)(C)C)CC6)ccn45)cccc32)n1 [Example 56, tert-Butyl 4-(2-(3-(3-methyl-1-((6-methylpyridin-2-yl)methyl)-1H-indazol-4-ylcarbamoyl)imidazo[1,2-a]pyridin-7-yloxy)ethyl)piperazine-1-carboxylate]",≥ 1000,32.1,1160
"Cc1cccc(Cn2nc(C)c3c(NC(=O)c4cnc5cc(CCN6CCCC6)ccn45)cccc32)n1 [Example 77, N-(3-methyl-1-((6-methylpyridin-2-yl)methyl)-1H-indazol-4-yl)-7-(2-(pyrrolidin-1-yl)ethyl)imidazo[1,2-a]pyridine-3-carboxamide]",≥ 1000,78.1,5000

# Continued, values first:
IC50 [1] [nM],IC50 [2] [nM],IC50 [3] [nM],Structure (SMILES)
394,9.9,687,"Cc1cccc(Cn2nc(C)c3c(NC(=O)c4cnc5cc(C6=CCNCC6)ccn45)cccc32)n1 [Example 51, N-(3-methyl-1-((6-methylpyridin-2-yl)methyl)-1H-indazol-4-yl)-7-(1,2,3,6-tetrahydropyridin-4-yl)imidazo[1,2-a]pyridine-3-carboxamide hydrochloride]"
≥ 1000,108,5000,"Cc1cccc(Cn2nc(C)c3c(NC(=O)c4cnc5cc(C6CCNCC6)ccn45)cccc32)n1 [Example 52, N-(3-methyl-1-((6-methylpyridin-2-yl)methyl)-1H-indazol-4-yl)-7-(piperidin-4-yl)imidazo[1,2-a]pyridine-3-carboxamide tri-hydrochloride]"
≥ 1000,73.5,4580,"Cc1cccc(Cn2nc(C)c3c(NC(=O)c4cnc5cc(F)ccn45)cccc32)n1 [Example 53, 7-fluoro-N-(3-methyl-1-((6-methylpyridin-2-yl)methyl)-1H-indazol-4-yl)imidazo[1,2-a]pyridine-3-carboxamide]"
291,8.8,387,"Cc1cccc(Cn2nc(C)c3c(NC(=O)c4cnc5cc(N6CCCC6)ccn45)cccc32)n1 [Example 54, N-(3-methyl-1-((6-methylpyridin-2-yl)methyl)-1H-indazol-4-yl)-7-(pyrrolidin-1-yl)imidazo[1,2-a]pyridine-3-carboxamide dihydrochloride]"
658,40.2,1270,"Cc1cccc(Cn2nc(C)c3c(NC(=O)c4cnc5cc(OCCO)ccn45)cccc32)n1 [Example 57, 7-(2-hydroxyethoxy)-N-(3-methyl-1-((6-methylpyridin-2-yl)methyl)-1H-indazol-4-yl)imidazo[1,2-a]pyridine-3-carboxamide di-hydrochloride salt]"
886,257,2450,"Cc1cccc(Cn2nc(C)c3c(NC(=O)c4cnc5ccc(C#N)cn45)cccc32)n1 [Example 62, 6-cyano-N-(3-methyl-1-((6-methylpyridin-2-yl)methyl)-1H-indazol-4-yl)imidazo[1,2-a]pyridine-3-carboxamide]"
≥ 1000,47,5000,"Cc1cccc(Cn2nc(C)c3c(NC(=O)c4cnc5cc(O)ccn45)cccc32)n1 [Example 63, 7-hydroxy-N-(3-methyl-1-((6-methylpyridin-2-yl)methyl)-1H-indazol-4-yl)imidazo[1,2-a]pyridine-3-carboxamide]"
99.2,5.1,146,"Cc1cccc(Cn2nc(C)c3c(NC(=O)c4cnc5cc(-c6cn[nH]c6)ccn45)cccc32)n1 [Example 70, N-(3-methyl-1-((6-methylpyridin-2-yl)methyl)-1H-indazol-4-yl)-7-(1H-pyrazol-4-yl)imidazo[1,2-a]pyridine-3-carboxamide]"
274,7.6,455,"Cc1cccc(Cn2nc(C)c3c(NC(=O)c4cnc5cc(-c6ccnn6C)ccn45)cccc32)n1 [Example 71, N-(3-methyl-1-((6-methylpyridin-2-yl)methyl)-1H-indazol-4-yl)-7-(1-methyl-1H-pyrazol-5-yl)imidazo[1,2-a]pyridine-3-carboxamide]"
≥ 1000,63.6,5000,"Cc1cccc(Cn2nc(C)c3c(NC(=O)c4cnc5cc(CCO)ccn45)cccc32)n1 [Example 73, 7-(2-hydroxyethyl)-N-(3-methyl-1-((6-methylpyridin-2-yl)methyl)-1H-indazol-4-yl)imidazo[1,2-a]pyridine-3-carboxamide]"
≥ 1000,427,5000,"Cc1cccc(Cn2nc(C)c3c(NC(=O)c4cnc5cc(C(C)NCCO)ccn45)cccc32)n1 (stereo not drawn) [Example 75, 7-(1-(2-hydroxyethylamino)ethyl)-N-(3-methyl-1-((6-methylpyridin-2-yl)methyl)-1H-indazol-4-yl)imidazo[1,2-a]pyridine-3-carboxamide]"
≥ 1000,47,5000,"Cc1cccc(Cn2nc(C)c3c(NC(=O)c4cnc5cc(C(C)O)ccn45)cccc32)n1 (stereo not drawn) [Example 76, 7-(1-hydroxyethyl)-N-(3-methyl-1-((6-methylpyridin-2-yl)methyl)-1H-indazol-4-yl)imidazo[1,2-a]pyridine-3-carboxamide]"
